# From ChEMBL document CHEMBL4665869, “New thiazolopyrimidine as anticancer agents: Synthesis, biological evaluation, DNA binding, molecular modeling and ADMET study” (Bioorg Med Chem Lett, 2020)
# Experiments:
# DU-145 = test: Growth inhibition of human DU-145 cells at 10 uM relative to control; type: functional; conditions: read-out: GI
# SF-268 = test: Growth inhibition of human SF-268 cells at 10 uM relative to control; type: functional; conditions: read-out: GI
# NCI-H460 = test: Growth inhibition of human NCI-H460 cells at 10 uM relative to control; type: functional; conditions: read-out: GI
# COLO 205 = test: Growth inhibition of human COLO 205 cells at 10 uM relative to control; type: functional; conditions: read-out: GI
# UO-31 = test: Growth inhibition of human UO-31 cells at 10 uM relative to control; type: functional; conditions: read-out: GI
# SK-MEL-2 = test: Growth inhibition of human SK-MEL-2 cells at 10 uM relative to control; type: functional; conditions: read-out: GI
# SNB-75 = test: Growth inhibition of human SNB-75 cells at 10 uM relative to control; type: functional; conditions: read-out: GI
# A549 = test: Growth inhibition of human A549 cells at 10 uM relative to control; type: functional; conditions: read-out: GI
# DNA = test: Displacement of methyl green from DNA (unknown origin) assessed as DNA intercalation after 24 hrs by colorimetric assay; type: nucleic-acid assay
# SF-295 = test: Growth inhibition of human SF-295 cells at 10 uM relative to control; type: functional; conditions: read-out: GI
# ACHN = test: Growth inhibition of human ACHN cells at 10 uM relative to control; type: functional; conditions: read-out: GI
# SK-OV-3 = test: Growth inhibition of human SK-OV-3 cells at 10 uM relative to control; type: functional; conditions: read-out: GI
# SR = test: Growth inhibition of human SR cells at 10 uM relative to control; type: functional; conditions: read-out: GI
# OVCAR-4 = test: Growth inhibition of human OVCAR-4 cells at 10 uM relative to control; type: functional; conditions: read-out: GI
# K562 = test: Growth inhibition of human K562 cells at 10 uM relative to control; type: functional; conditions: read-out: GI
# KM12 = test: Growth inhibition of human KM12 cells at 10 uM relative to control; type: functional; conditions: read-out: GI
# SK-MEL-28 = test: Growth inhibition of human SK-MEL-28 cells at 10 uM relative to control; type: functional; conditions: read-out: GI
# 786-0 = test: Growth inhibition of human 786-0 cells at 10 uM relative to control; type: functional; conditions: read-out: GI
# UACC-257 = test: Growth inhibition of human UACC-257 cells at 10 uM relative to control; type: functional; conditions: read-out: GI
# MDA-MB-231 = test: Growth inhibition of human MDA-MB-231 cells at 10 uM relative to control; type: functional; conditions: read-out: GI
# Hs-578T = test: Growth inhibition of human Hs-578T cells at 10 uM relative to control; type: functional; conditions: read-out: GI
# RPMI-8226 = test: Growth inhibition of human RPMI-8226 cells at 10 uM relative to control; type: functional; conditions: read-out: GI
# HCC 2998 = test: Growth inhibition of human HCC 2998 cells at 10 uM relative to control; type: functional; conditions: read-out: GI
# NCI-H23 = test: Growth inhibition of human NCI-H23 cells at 10 uM relative to control; type: functional; conditions: read-out: GI
# MOLT-4 = test: Growth inhibition of human MOLT-4 cells at 10 uM relative to control; type: functional; conditions: read-out: GI
# HL-60(TB) = test: Growth inhibition of human HL-60(TB) cells at 10 uM relative to control; type: functional; conditions: read-out: GI
# HCT-116 = test: Growth inhibition of human HCT-116 cells at 10 uM relative to control; type: functional; conditions: read-out: GI
# SK-MEL-5 = test: Growth inhibition of human SK-MEL-5 cells at 10 uM relative to control; type: functional; conditions: read-out: GI
# MDA-MB-435 = test: Growth inhibition of human MDA-MB-435 cells at 10 uM relative to control; type: functional; conditions: read-out: GI
# RXF 393 = test: Growth inhibition of human RXF 393 cells at 10 uM relative to control; type: functional; conditions: read-out: GI
# NCI-H226 = test: Growth inhibition of human NCI-H226 cells at 10 uM relative to control; type: functional; conditions: read-out: GI
# HOP-92 = test: Growth inhibition of human HOP-92 cells at 10 uM relative to control; type: functional; conditions: read-out: GI
# BT-549 = test: Growth inhibition of human BT-549 cells at 10 uM relative to control; type: functional; conditions: read-out: GI
# HT-29 = test: Growth inhibition of human HT-29 cells at 10 uM relative to control; type: functional; conditions: read-out: GI
# LOX IMVI = test: Growth inhibition of human LOX IMVI cells at 10 uM relative to control; type: functional; conditions: read-out: GI
# SF-539 = test: Growth inhibition of human SF-539 cells at 10 uM relative to control; type: functional; conditions: read-out: GI
# MCF7 = test: Growth inhibition of human MCF7 cells at 10 uM relative to control; type: functional; conditions: read-out: GI
# HOP-62 = test: Growth inhibition of human HOP-62 cells at 10 uM relative to control; type: functional; conditions: read-out: GI
# IGROV-1 = test: Growth inhibition of human IGROV-1 cells at 10 uM relative to control; type: functional; conditions: read-out: GI
# T47D = test: Growth inhibition of human T47D cells at 10 uM relative to control; type: functional; conditions: read-out: GI
# OVCAR-8 = test: Growth inhibition of human OVCAR-8 cells at 10 uM relative to control; type: functional; conditions: read-out: GI
# NCI/ADR-RES = test: Growth inhibition of human NCI/ADR-RES cells at 10 uM relative to control; type: functional; conditions: read-out: GI
# CAKI-1 = test: Growth inhibition of human CAKI-1 cells at 10 uM relative to control; type: functional; conditions: read-out: GI
# U-251 = test: Growth inhibition of human U-251 cells at 10 uM relative to control; type: functional; conditions: read-out: GI
# Malme-3M = test: Growth inhibition of human Malme-3M cells at 10 uM relative to control; type: functional; conditions: read-out: GI
# SW-620 = test: Growth inhibition of human SW-620 cells at 10 uM relative to control; type: functional; conditions: read-out: GI
# SN12C = test: Growth inhibition of human SN12C cells at 10 uM relative to control; type: functional; conditions: read-out: GI
# MDA-MB-468 = test: Growth inhibition of human MDA-MB-468 cells at 10 uM relative to control; type: functional; conditions: read-out: GI
# CCRF-CEM = test: Growth inhibition of human CCRF-CEM cells at 10 uM relative to control; type: functional; conditions: read-out: GI
# M14 = test: Growth inhibition of human M14 cells at 10 uM relative to control; type: functional; conditions: read-out: GI
# NCI-H322M = test: Growth inhibition of human NCI-H322M cells at 10 uM relative to control; type: functional; conditions: read-out: GI
# OVCAR-5 = test: Growth inhibition of human OVCAR-5 cells at 10 uM relative to control; type: functional; conditions: read-out: GI
# HCT-15 = test: Growth inhibition of human HCT-15 cells at 10 uM relative to control; type: functional; conditions: read-out: GI
# UACC-62 = test: Growth inhibition of human UACC-62 cells at 10 uM relative to control; type: functional; conditions: read-out: GI
# PC-3 = test: Growth inhibition of human PC-3 cells at 10 uM relative to control; type: functional; conditions: read-out: GI
# TK-10 = test: Growth inhibition of human TK-10 cells at 10 uM relative to control; type: functional; conditions: read-out: GI
# A498 = test: Growth inhibition of human A498 cells at 10 uM relative to control; type: functional; conditions: read-out: GI
# SNB-19 = test: Growth inhibition of human SNB-19 cells at 10 uM relative to control; type: functional; conditions: read-out: GI
# NCI-H522 = test: Growth inhibition of human NCI-H522 cells at 10 uM relative to control; type: functional; conditions: read-out: GI
smiles,measurement,setting,value
COc1cc(/C=C/C2=CC(c3cc(OC)c(OC)c(OC)c3)N3C(C)=CSC3=N2)cc(OC)c1OC (centres undefined),inhibition of growth at 10 µM,DU-145,< 10%
same,inhibition of growth at 10 µM,SF-268,< 10%
same,inhibition of growth at 10 µM,NCI-H460,< 10%
same,inhibition of growth at 10 µM,COLO 205,< 10%
same,inhibition of growth at 10 µM,UO-31,< 10%
same,inhibition of growth at 10 µM,SK-MEL-2,< 10%
same,inhibition of growth at 10 µM,SNB-75,12.5%
same,inhibition of growth at 10 µM,A549,< 10%
same,IC50,DNA,91.48 µg/mL
same,inhibition of growth at 10 µM,SF-295,< 10%
same,inhibition of growth at 10 µM,ACHN,< 10%
same,inhibition of growth at 10 µM,SK-OV-3,< 10%
same,inhibition of growth at 10 µM,SR,< 10%
same,inhibition of growth at 10 µM,OVCAR-4,< 10%
same,inhibition of growth at 10 µM,K562,< 10%
same,inhibition of growth at 10 µM,KM12,< 10%
same,inhibition of growth at 10 µM,SK-MEL-28,< 10%
same,inhibition of growth at 10 µM,786-0,< 10%
same,inhibition of growth at 10 µM,UACC-257,< 10%
same,inhibition of growth at 10 µM,MDA-MB-231,< 10%
same,inhibition of growth at 10 µM,Hs-578T,< 10%
same,inhibition of growth at 10 µM,RPMI-8226,< 10%
same,inhibition of growth at 10 µM,HCC 2998,< 10%
same,inhibition of growth at 10 µM,NCI-H23,< 10%
same,inhibition of growth at 10 µM,MOLT-4,< 10%
same,inhibition of growth at 10 µM,HL-60(TB),< 10%
same,inhibition of growth at 10 µM,HCT-116,< 10%
same,inhibition of growth at 10 µM,SK-MEL-5,< 10%
same,inhibition of growth at 10 µM,MDA-MB-435,< 10%
same,inhibition of growth at 10 µM,RXF 393,< 10%
same,inhibition of growth at 10 µM,NCI-H226,< 10%
same,inhibition of growth at 10 µM,HOP-92,< 10%
same,inhibition of growth at 10 µM,BT-549,< 10%
same,inhibition of growth at 10 µM,HT-29,< 10%
same,inhibition of growth at 10 µM,LOX IMVI,< 10%
same,inhibition of growth at 10 µM,SF-539,< 10%
same,inhibition of growth at 10 µM,MCF7,< 10%
same,inhibition of growth at 10 µM,HOP-62,< 10%
same,inhibition of growth at 10 µM,IGROV-1,< 10%
same,inhibition of growth at 10 µM,T47D,< 10%
same,inhibition of growth at 10 µM,OVCAR-8,< 10%
same,inhibition of growth at 10 µM,NCI/ADR-RES,< 10%
same,inhibition of growth at 10 µM,CAKI-1,< 10%
same,inhibition of growth at 10 µM,U-251,< 10%
same,inhibition of growth at 10 µM,Malme-3M,< 10%
same,inhibition of growth at 10 µM,SW-620,< 10%
same,inhibition of growth at 10 µM,SN12C,< 10%
same,inhibition of growth at 10 µM,MDA-MB-468,< 10%
same,inhibition of growth at 10 µM,CCRF-CEM,< 10%
same,inhibition of growth at 10 µM,M14,< 10%
same,inhibition of growth at 10 µM,NCI-H322M,< 10%
same,inhibition of growth at 10 µM,OVCAR-5,< 10%
same,inhibition of growth at 10 µM,HCT-15,< 10%
same,inhibition of growth at 10 µM,UACC-62,< 10%
same,inhibition of growth at 10 µM,PC-3,< 10%
same,inhibition of growth at 10 µM,TK-10,< 10%
same,inhibition of growth at 10 µM,A498,< 10%
same,inhibition of growth at 10 µM,SNB-19,< 10%
same,inhibition of growth at 10 µM,NCI-H522,14.5%
